Measured values taken from the supplement of paper PMC10307832.

What was measured:
Experiment in all cases: relative viability (nuclei count vs DMSO), 5 days (fraction); higher = more cells survive
Tosedostat + Lapatinib = compound: CC(C)C[C@@H](C(=O)N[C@H](C(=O)OC1CCCC1)c1ccccc1)[C@H](O)C(=O)NO [Tosedostat] + CS(=O)(=O)CCNCc1ccc(-c2ccc3ncnc(Nc4ccc(OCc5cccc(F)c5)c(Cl)c4)c3c2)o1 [Lapatinib] (partner 2 µM)
Procedure, shortened: (§1)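 One day after seeding in 1536-well plates, lung cancer cell lines were dosed by pin tool. Dosing was either single-drug or a fixed anchor-drug dose plus five library-drug doses (not always all listed) in √10 steps. After 5 days, nuclei were stained in one fix-and-stain step and counted on 4× images, and relative viability is the nuclei count of treated wells over that of vehicle wells, given as the median of duplicate plates.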

[1] = compound: CC1=NN=C(O1)C2=NN=C(C=C2)N3CCC(CC3)OC4=C(C=CC(=C4)F)Cl + Cc1cc(Nc2cc(N3CCN(C)CC3)nc(Sc3ccc(NC(=O)C4CC4)cc3)n2)n[nH]1 [Tozasertib] (partner 0.1 µM)
Procedure, shortened: as §1

[2] = compound: CC1=NN=C(O1)C2=NN=C(C=C2)N3CCC(CC3)OC4=C(C=CC(=C4)F)Cl + CCNC(=O)c1noc(-c2cc(C(C)C)c(O)cc2O)c1-c1ccc(CN2CCOCC2)cc1 [Luminespib] (partner 0.01 µM)
Procedure, shortened: as §1

Tosedostat + Palbociclib = compound: CC(C)C[C@@H](C(=O)N[C@H](C(=O)OC1CCCC1)c1ccccc1)[C@H](O)C(=O)NO [Tosedostat] + CC(=O)c1c(C)c2cnc(Nc3ccc(N4CCNCC4)cn3)nc2n(C2CCCC2)c1=O [Palbociclib] (partner 0.5 µM)
Procedure, shortened: as §1

UMC-11
relative viability (Tosedostat + Lapatinib; first compound 0.02 µM): 1.05
relative viability (Tosedostat + Lapatinib; first compound 0.06325 µM): 1.01
relative viability (Tosedostat + Lapatinib; first compound 0.2 µM): 0.957
relative viability (Tosedostat + Lapatinib; first compound 0.6325 µM): 1.19
relative viability (Tosedostat + Lapatinib; first compound 2 µM): 0.96
relative viability ([1]; first compound 0.253 µM): 0.181
relative viability ([1]; first compound 0.8 µM): 0.184
relative viability ([1]; first compound 2.53 µM): 0.192
relative viability ([1]; first compound 8 µM): 0.169
relative viability ([2]; first compound 0.253 µM): 0.523
relative viability ([2]; first compound 0.8 µM): 0.572
relative viability ([2]; first compound 2.53 µM): 0.453
relative viability ([2]; first compound 8 µM): 0.552
relative viability (Tosedostat + Palbociclib; first compound 0.02 µM): 0.339
relative viability (Tosedostat + Palbociclib; first compound 0.06325 µM): 0.341
relative viability (Tosedostat + Palbociclib; first compound 0.2 µM): 0.299
relative viability (Tosedostat + Palbociclib; first compound 0.6325 µM): 0.362
relative viability (Tosedostat + Palbociclib; first compound 2 µM): 0.338
